{"source": "patent US8197775B2", "about": "“Detection article having fluid control film” (priority 1999, dated 2012)", "test_system": "Escherichia coli ATCC 51813", "assay": "Minimum inhibitory concentration (MIC) test using microchannels, MUG fluorescence read-out", "format": "cell-based", "details": "ATCC51813, VRB media with MUG 0.5 mg/ml, 16 hours at 37° C., control tubes and microchannels", "description": "Microchannel polyethylene films were heat embossed on a hydraulic press according to the procedure outlined in U.S. patent application Ser. No. 08/905,481. […] The channels were covered with ScotchPak #33 (3M Company) using an iron heated to 149 degrees C. (300 degrees F.), forming a series of capillary channels.\nA dilution series of tetracycline was prepared in VRB media (7.0 g Bacto peptone, 3.0 g yeast extract, 1.5 g bile salts per liter) containing the fluorescent indicator methylumbelliferyl glucuronide (MUG, 0.5 mg/ml). The following tetracycline concentrations were prepared: 40, 4, 0.4, 0.04, and 0.004 micrograms/ml. Approximately 1 ml of each solution was placed in a test tube. A suspension of Escherichia coli ATCC 51813 (100 microliters of approximately 10^7 bacteria/ml) was added to each tube. A syringe was used to transfer each solution into adjacent microchannels (1.6 microliters/channel). Both the control tubes and the microchannel device were incubated for 16 hours at 37° C. After incubation the samples were observed under ultraviolet radiation."}
{"smiles": "CN(C)[C@@H]1C(O)=C(C(N)=O)C(=O)[C@@]2(O)C(O)=C3C(=O)c4c(O)cccc4[C@@](C)(O)[C@H]3C[C@@H]12", "note": "[tetracycline]", "values": [{"measurement": "MIC", "value": 4, "unit": "µg/mL"}]}
